Experimental findings from patent US10344060B2 (priority 2013, dated 2019) are described below.

This assay deals with hNav1.7 (Homo sapiens, UniProt Q15858). Kind of assay: cell-based. Conditions: ratio of PX tonic IC50 values; Table 11. In kind it is cell-based.
Chain of hNav1.7 (Q15858 whole entry): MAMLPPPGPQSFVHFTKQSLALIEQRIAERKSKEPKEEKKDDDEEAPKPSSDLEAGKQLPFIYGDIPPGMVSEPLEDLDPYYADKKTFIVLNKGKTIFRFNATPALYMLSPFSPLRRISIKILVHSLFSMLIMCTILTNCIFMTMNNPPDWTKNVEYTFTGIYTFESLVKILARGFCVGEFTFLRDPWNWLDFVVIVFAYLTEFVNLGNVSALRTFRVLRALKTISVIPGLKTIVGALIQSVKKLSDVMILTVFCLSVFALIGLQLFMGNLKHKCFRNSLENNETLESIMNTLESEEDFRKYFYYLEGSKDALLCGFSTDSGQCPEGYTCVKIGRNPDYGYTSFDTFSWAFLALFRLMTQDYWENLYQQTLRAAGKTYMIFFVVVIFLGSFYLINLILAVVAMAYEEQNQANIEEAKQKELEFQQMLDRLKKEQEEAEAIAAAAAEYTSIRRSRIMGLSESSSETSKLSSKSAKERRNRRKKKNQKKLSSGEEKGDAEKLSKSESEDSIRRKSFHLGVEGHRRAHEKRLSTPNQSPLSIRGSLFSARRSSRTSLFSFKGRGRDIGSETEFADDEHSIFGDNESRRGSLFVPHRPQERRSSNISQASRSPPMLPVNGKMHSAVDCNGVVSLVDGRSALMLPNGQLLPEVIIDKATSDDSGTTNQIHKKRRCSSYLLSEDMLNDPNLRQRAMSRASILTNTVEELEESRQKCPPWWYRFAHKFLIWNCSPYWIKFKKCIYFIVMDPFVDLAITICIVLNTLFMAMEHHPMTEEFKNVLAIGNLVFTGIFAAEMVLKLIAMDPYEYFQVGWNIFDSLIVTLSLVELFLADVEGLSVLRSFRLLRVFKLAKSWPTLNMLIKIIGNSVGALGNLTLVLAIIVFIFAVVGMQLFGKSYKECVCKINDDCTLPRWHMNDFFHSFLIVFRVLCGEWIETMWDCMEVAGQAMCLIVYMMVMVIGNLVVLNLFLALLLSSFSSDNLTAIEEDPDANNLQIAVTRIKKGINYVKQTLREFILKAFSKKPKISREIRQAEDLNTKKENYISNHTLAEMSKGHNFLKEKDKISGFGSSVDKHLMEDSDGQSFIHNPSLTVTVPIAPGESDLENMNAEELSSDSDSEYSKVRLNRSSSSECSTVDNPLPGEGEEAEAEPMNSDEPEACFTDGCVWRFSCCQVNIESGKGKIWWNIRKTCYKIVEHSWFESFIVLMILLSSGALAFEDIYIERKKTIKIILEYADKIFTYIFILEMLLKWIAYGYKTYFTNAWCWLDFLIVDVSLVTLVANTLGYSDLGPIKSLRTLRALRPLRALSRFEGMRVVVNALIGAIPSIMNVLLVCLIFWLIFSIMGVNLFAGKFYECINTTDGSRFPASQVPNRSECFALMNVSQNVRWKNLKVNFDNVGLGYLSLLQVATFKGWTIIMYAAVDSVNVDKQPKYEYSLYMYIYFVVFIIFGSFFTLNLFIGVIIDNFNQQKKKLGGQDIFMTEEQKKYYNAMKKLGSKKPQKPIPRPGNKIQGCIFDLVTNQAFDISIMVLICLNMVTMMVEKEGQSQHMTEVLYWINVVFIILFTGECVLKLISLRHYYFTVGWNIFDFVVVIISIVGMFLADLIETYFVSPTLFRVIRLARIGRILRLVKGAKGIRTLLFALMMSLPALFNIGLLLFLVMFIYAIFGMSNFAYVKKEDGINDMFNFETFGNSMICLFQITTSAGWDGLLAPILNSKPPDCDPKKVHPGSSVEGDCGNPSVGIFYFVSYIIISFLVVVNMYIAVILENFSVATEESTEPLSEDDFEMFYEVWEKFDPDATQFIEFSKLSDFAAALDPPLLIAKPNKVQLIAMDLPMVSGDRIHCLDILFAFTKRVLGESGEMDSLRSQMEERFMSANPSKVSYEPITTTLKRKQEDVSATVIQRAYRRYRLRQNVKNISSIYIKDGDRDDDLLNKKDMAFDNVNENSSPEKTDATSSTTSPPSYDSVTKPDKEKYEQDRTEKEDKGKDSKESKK

Turning to `CCCC[C@@H]1NC(=O)[C@H](Cc2c[nH]c3ccccc23)NC(=O)[C@H](CCCCN)NC(=O)[C@H](CCC(N)=O)NC(=O)[C@@H](NC(=O)[C@H](Cc2ccc(O)cc2)NC(=O)[C@@H](N)CCCCNC(=O)CCOCCOCCOCCOCCOCCOCCOCCOCCOCCOCCOCCOCCN)CSSC[C@@H]2NC(=O)[C@@H]3CSSC[C@@H](C(=O)N[C@@H](CCCNC(=N)N)C(=O)N[C@@H](CCCCN)C(=O)N[C@@H](CCC(=O)O)C(=O)N[C@@H](Cc4c[nH]c5ccccc45)C(N)=O)NC(=O)[C@H](Cc4c[nH]c5ccccc45)NC(=O)[C@H](CC(C)C)NC(=O)[C@H](CCCCN)NC(=O)[C@H](CSSC[C@H](NC(=O)[C@H]([C@@H](C)O)NC(=O)[C@H](Cc4c[nH]c5ccccc45)NC1=O)C(=O)N[C@@H](CC(=O)O)C(=O)N[C@@H](CO)C(=O)N[C@@H](CCCCN)C(=O)N[C@@H](CCCNC(=N)N)C(=O)N[C@@H](C)C(=O)N3)NC(=O)[C@H](CCCNC(=N)N)NC(=O)[C@H](CC(C)C)NC(=O)CNC(=O)[C@H](CCC(=O)O)NC2=O` [compound 458], the Nav1.4/Nav1.7 worked out at 38 and the Nav1.5/Nav1.7 is listed as 202.

`CCCC[C@@H]1NC(=O)[C@H](Cc2c[nH]c3ccccc23)NC(=O)[C@H](CCCCN)NC(=O)[C@H](CCC(N)=O)NC(=O)[C@@H](NC(=O)[C@H](Cc2ccc(O)cc2)NC(=O)[C@@H](N)CC#N)CSSC[C@@H]2NC(=O)[C@@H]3CSSC[C@@H](C(=O)N[C@@H](CCCNC(=N)N)C(=O)N[C@@H](CCCCN)C(=O)N[C@@H](CCC(=O)O)C(=O)N[C@@H](Cc4c[nH]c5ccccc45)C(N)=O)NC(=O)[C@H](Cc4c[nH]c5ccccc45)NC(=O)[C@H](CC(C)C)NC(=O)[C@H](CCCCN)NC(=O)[C@H](CSSC[C@H](NC(=O)[C@H]([C@@H](C)O)NC(=O)[C@H](Cc4c[nH]c5ccccc45)NC1=O)C(=O)N[C@@H](CC(=O)O)C(=O)N[C@@H](CO)C(=O)N[C@@H](CCCCN)C(=O)N[C@@H](CCCNC(=N)N)C(=O)N[C@@H](C)C(=O)N3)NC(=O)[C@H](CCCNC(=N)N)NC(=O)[C@H](CC(C)C)NC(=O)CNC(=O)[C@H](CCCCNC(=O)CCOCCOCCOCCOCCOCCOCCOCCOCCOCCOCCOCCOCCN)NC2=O` [compound 459]: the Nav1.4/Nav1.7 came to 27.

Take `CCCC[C@@H]1NC(=O)[C@H](Cc2c[nH]c3ccccc23)NC(=O)[C@H](CCCCN)NC(=O)[C@H](CCC(N)=O)NC(=O)[C@@H](NC(=O)[C@H](Cc2ccc(O)cc2)NC(=O)[C@@H](N)CC(C)C)CSSC[C@@H]2NC(=O)[C@@H]3CSSC[C@@H](C(=O)N[C@@H](CCCNC(=N)N)C(=O)N[C@@H](CCCCN)C(=O)N[C@@H](CCC(=O)O)C(=O)N[C@H](C(N)=O)[C@@H](C)CC)NC(=O)[C@H](Cc4c[nH]c5ccccc45)NC(=O)[C@H](CC(C)C)NC(=O)[C@H](CCCCN)NC(=O)[C@H](CSSC[C@H](NC(=O)[C@H]([C@@H](C)O)NC(=O)[C@H](Cc4c[nH]c5ccccc45)NC1=O)C(=O)N[C@@H](CC(=O)O)C(=O)N[C@@H](CO)C(=O)N[C@@H](CCCCN)C(=O)N[C@@H](CCCNC(=N)N)C(=O)N[C@@H](C)C(=O)N3)NC(=O)[C@H](CCCNC(=N)N)NC(=O)[C@H](CC(C)C)NC(=O)CNC(=O)[C@H](CCCCNC(=O)CCOCCOCCOCCOCCOCCOCCOCCOCCOCCOCCOCCOCCN)NC2=O` [compound 462]: the Nav1.4/Nav1.7 was 20.

As for `CCCC[C@@H]1NC(=O)[C@H](Cc2c[nH]c3ccccc23)NC(=O)[C@H](CCCCN)NC(=O)[C@H](CCC(N)=O)NC(=O)[C@@H](NC(=O)[C@H](Cc2ccc(O)cc2)NC(=O)[C@H](N)CC(C)C)CSSC[C@@H]2NC(=O)[C@@H]3CSSC[C@@H](C(=O)N[C@@H](CCCNC(=N)N)C(=O)N[C@@H](CCCCN)C(=O)N[C@@H](CCC(=O)O)C(=O)N[C@H](C(N)=O)[C@@H](C)CC)NC(=O)[C@H](Cc4c[nH]c5ccccc45)NC(=O)[C@H](CC(C)C)NC(=O)[C@H](CCCCN)NC(=O)[C@H](CSSC[C@H](NC(=O)[C@H]([C@@H](C)O)NC(=O)[C@H](Cc4c[nH]c5ccccc45)NC1=O)C(=O)N[C@@H](CC(=O)O)C(=O)N[C@@H](CO)C(=O)N[C@@H](CCCCN)C(=O)N[C@@H](CCCNC(=N)N)C(=O)N[C@@H](C)C(=O)N3)NC(=O)[C@H](CCCNC(=N)N)NC(=O)[C@H](CC(C)C)NC(=O)CNC(=O)[C@H](CCCCNC(=O)CCOCCOCCOCCOCCOCCOCCOCCOCCOCCOCCOCCOCCN)NC2=O` [compound 464], the Nav1.4/Nav1.7 is given as 18.

As to `CCCC[C@@H]1NC(=O)[C@H](Cc2c[nH]c3ccccc23)NC(=O)[C@H](CCCCN)NC(=O)[C@H](CCC(N)=O)NC(=O)[C@@H](NC(=O)[C@H](Cc2ccc(O)cc2)NC(=O)[C@H](CC(C)C)NC)CSSC[C@@H]2NC(=O)[C@@H]3CSSC[C@@H](C(=O)N[C@@H](CCCNC(=N)N)C(=O)N[C@@H](CCCCN)C(=O)N[C@@H](CCC(=O)O)C(=O)N[C@H](C(N)=O)[C@@H](C)CC)NC(=O)[C@H](Cc4c[nH]c5ccccc45)NC(=O)[C@H](CC(C)C)NC(=O)[C@H](CCCCN)NC(=O)[C@H](CSSC[C@H](NC(=O)[C@H]([C@@H](C)O)NC(=O)[C@H](Cc4c[nH]c5ccccc45)NC1=O)C(=O)N[C@@H](CC(=O)O)C(=O)N[C@@H](CO)C(=O)N[C@@H](CCCCN)C(=O)N[C@@H](CCCNC(=N)N)C(=O)N[C@@H](C)C(=O)N3)NC(=O)[C@H](CCCNC(=N)N)NC(=O)[C@H](CC(C)C)NC(=O)CNC(=O)[C@H](CCCCNC(=O)CCOCCOCCOCCOCCOCCOCCOCCOCCOCCOCCOCCOCCN)NC2=O` [compound 466], the Nav1.4/Nav1.7 was found to be 19.

As for `CCCC[C@@H]1NC(=O)[C@H](Cc2c[nH]c3ccccc23)NC(=O)[C@H](CCCCN)NC(=O)[C@H](CCC(N)=O)NC(=O)[C@@H](NC(=O)[C@H](Cc2ccc(O)cc2)NC(=O)[C@H](CCC)NC(=O)[C@@H](N)CC(C)C)CSSC[C@@H]2NC(=O)[C@@H]3CSSC[C@@H](C(=O)N[C@@H](CCCNC(=N)N)C(=O)N[C@@H](CCCCN)C(=O)N[C@@H](CCC(=O)O)C(=O)N[C@H](C(N)=O)[C@@H](C)CC)NC(=O)[C@H](Cc4c[nH]c5ccccc45)NC(=O)[C@H](CC(C)C)NC(=O)[C@H](CCCCN)NC(=O)[C@H](CSSC[C@H](NC(=O)[C@H]([C@@H](C)O)NC(=O)[C@H](Cc4c[nH]c5ccccc45)NC1=O)C(=O)N[C@@H](CC(=O)O)C(=O)N[C@@H](CO)C(=O)N[C@@H](CCCCN)C(=O)N[C@@H](CCCNC(=N)N)C(=O)N[C@@H](CCCCNC(=O)CCOCCOCCOCCOCCOCCOCCOCCOCCOCCOCCOCCOCCN)C(=O)N3)NC(=O)[C@H](CCCNC(=N)N)NC(=O)[C@H](CC(C)C)NC(=O)CNC(=O)[C@H](CCC(=O)O)NC2=O` [compound 470], the Nav1.4/Nav1.7 is 34 and the Nav1.5/Nav1.7 turned out to be 372.

For the molecule `CCCC[C@@H]1NC(=O)[C@H](Cc2c[nH]c3ccccc23)NC(=O)[C@H](CCCCN)NC(=O)[C@H](CCC(N)=O)NC(=O)[C@@H](NC(=O)[C@H](Cc2ccc(O)cc2)NC(=O)[C@H](CCC)NC(=O)[C@@H](N)CC(C)C)CSSC[C@@H]2NC(=O)[C@@H]3CSSC[C@@H](C(=O)N[C@@H](CCCNC(=N)N)C(=O)N[C@@H](CCCCN)C(=O)N[C@@H](CCC(=O)O)C(=O)N[C@H](C(N)=O)[C@@H](C)CC)NC(=O)[C@H](Cc4c[nH]c5ccccc45)NC(=O)[C@H](CC(C)C)NC(=O)[C@H](CCCCN)NC(=O)[C@H](CSSC[C@H](NC(=O)[C@H]([C@@H](C)O)NC(=O)[C@H](Cc4c[nH]c5ccccc45)NC1=O)C(=O)N[C@@H](CC(=O)O)C(=O)N[C@@H](CO)C(=O)N[C@@H](CCCCN)C(=O)N[C@@H](CCCNC(=N)N)C(=O)N[C@@H](C)C(=O)N3)NC(=O)[C@H](CCCNC(=N)N)NC(=O)[C@H](CC(C)C)NC(=O)CNC(=O)[C@H](CCCCNC(=O)CCOCCOCCOCCOCCOCCOCCOCCOCCOCCOCCOCCOCCN)NC2=O` [compound 471], the Nav1.4/Nav1.7 was determined as 6 and the Nav1.5/Nav1.7 was found to be 110.

For `CCCC[C@@H]1NC(=O)[C@H](Cc2c[nH]c3ccccc23)NC(=O)[C@H](CCCCN)NC(=O)[C@H](CCC(N)=O)NC(=O)[C@@H](NC(=O)[C@H](Cc2ccc(O)cc2)NC(=O)[C@H](CCC)NC(=O)[C@H](N)CC(C)C)CSSC[C@@H]2NC(=O)[C@@H]3CSSC[C@@H](C(=O)N[C@@H](CCCNC(=N)N)C(=O)N[C@@H](CCCCN)C(=O)N[C@@H](CCC(=O)O)C(=O)N[C@H](C(N)=O)[C@@H](C)CC)NC(=O)[C@H](Cc4c[nH]c5ccccc45)NC(=O)[C@H](CC(C)C)NC(=O)[C@H](CCCCN)NC(=O)[C@H](CSSC[C@H](NC(=O)[C@H]([C@@H](C)O)NC(=O)[C@H](Cc4c[nH]c5ccccc45)NC1=O)C(=O)N[C@@H](CC(=O)O)C(=O)N[C@@H](CO)C(=O)N[C@@H](CCCCN)C(=O)N[C@@H](CCCNC(=N)N)C(=O)N[C@@H](CCCCNC(=O)CCOCCOCCOCCOCCOCCOCCOCCOCCOCCOCCOCCOCCN)C(=O)N3)NC(=O)[C@H](CCCNC(=N)N)NC(=O)[C@H](CC(C)C)NC(=O)CNC(=O)[C@H](CCC(=O)O)NC2=O` [compound 472], the Nav1.4/Nav1.7 is 42 and the Nav1.5/Nav1.7 is given as 349.

Regarding `CCCC[C@@H]1NC(=O)[C@H](Cc2c[nH]c3ccccc23)NC(=O)[C@H](CCCCN)NC(=O)[C@H](CCC(N)=O)NC(=O)[C@@H](NC(=O)[C@H](Cc2ccc(O)cc2)NC(=O)[C@H](CCC)NC(=O)[C@H](N)CC(C)C)CSSC[C@@H]2NC(=O)[C@@H]3CSSC[C@@H](C(=O)N[C@@H](CCCNC(=N)N)C(=O)N[C@@H](CCCCN)C(=O)N[C@@H](CCC(=O)O)C(=O)N[C@H](C(N)=O)[C@@H](C)CC)NC(=O)[C@H](Cc4c[nH]c5ccccc45)NC(=O)[C@H](CC(C)C)NC(=O)[C@H](CCCCN)NC(=O)[C@H](CSSC[C@H](NC(=O)[C@H]([C@@H](C)O)NC(=O)[C@H](Cc4c[nH]c5ccccc45)NC1=O)C(=O)N[C@@H](CC(=O)O)C(=O)N[C@@H](CO)C(=O)N[C@@H](CCCCN)C(=O)N[C@@H](CCCNC(=N)N)C(=O)N[C@@H](C)C(=O)N3)NC(=O)[C@H](CCCNC(=N)N)NC(=O)[C@H](CC(C)C)NC(=O)CNC(=O)[C@H](CCCCNC(=O)CCOCCOCCOCCOCCOCCOCCOCCOCCOCCOCCOCCOCCN)NC2=O` [compound 473], the Nav1.4/Nav1.7 is listed as 34 and the Nav1.5/Nav1.7 is reported as 180.
